From US20230021448A1, “COMPOUNDS AND COMPOSITIONS FOR TREATING CONDITIONS ASSOCIATED WITH STING ACTIVITY” (IFM Due, Inc., priority 2019, published 2023)

Biological target: T1, STING (Homo sapiens, UniProt Q86WV6, G230A/H232R/R293Q/R71H)
T1 construct: host or cells: THP1-Dual KO-IFNAR2 cells
Experiment: STING reporter assay: luciferase reporter activity in THP1-Dual KO-IFNAR2 cells stimulated with 2'3'cGAMP
Format: cell-based
Settings: 2′3′cGAMP 15 μM final, 24h, read-out: hSTING: EC50
How it was run: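 THP1-Dual KO-IFNAR2 cells (2×10E6 cells/mL) incubated with compounds at 0.0017-100 μM final plus Lipofectamine-transfected 2′3′cGAMP (15 μM final), 24 h at 37 °C, 5% CO2. Luciferase in supernatant read by QUANTI-Luc luminescence; EC50 derived.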

T1 sequence (Q86WV6 whole entry R71H/G230A/H232R/R293Q): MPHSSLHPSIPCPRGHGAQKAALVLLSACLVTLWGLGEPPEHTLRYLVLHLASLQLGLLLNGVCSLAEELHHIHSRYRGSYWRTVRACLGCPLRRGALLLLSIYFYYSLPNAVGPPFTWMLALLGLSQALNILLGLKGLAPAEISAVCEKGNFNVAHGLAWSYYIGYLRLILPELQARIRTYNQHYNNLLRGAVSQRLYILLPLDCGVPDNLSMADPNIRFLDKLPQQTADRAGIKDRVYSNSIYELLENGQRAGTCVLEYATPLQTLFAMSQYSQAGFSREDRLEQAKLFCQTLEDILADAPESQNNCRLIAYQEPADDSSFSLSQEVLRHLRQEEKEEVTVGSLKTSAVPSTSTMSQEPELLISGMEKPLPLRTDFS

| Compound | EC50 [nM] |
| --- | --- |
| O=C(NCCc1ccccc1C(F)(F)F)C(=O)Nc1c[nH]c2cc(F)c(F)cc12 [Compound 138, N1-(5,6-difluoro-1H-indol-3-yl)-N2-(2-(trifluoromethyl)phenethyl) oxalamide] | 200 to 1000 |
| O=C(NC[C@@H]1CC12CCCCC2)C(=O)Nc1c[nH]c2cc(F)c(F)cc12 [Compound 176] | 200 to 1000 |
| Cc1ccc(Cl)cc1NC(=O)C(=O)Nc1c[nH]c2cc(F)c(F)cc12 [Compound 130, N1-(5-chloro-2-methylphenyl)-N2-(5,6-difluoro-1H-indol-3-yl)oxalamide] | 200 to 1000 |
| O=C(Nc1ccc(C2CCC(F)(F)CC2)nc1)C(=O)Nc1c[nH]c2cc(F)c(F)cc12 [Compound 175] | 200 to 1000 |
| O=C(NCC1CC12CCCCC2)C(=O)Nc1c[nH]c2cc(F)c(F)cc12 (stereo not shown) [Compound 189] | 200 to 1000 |
| O=C(Nc1c[nH]c2cc(F)c(F)cc12)C(=O)N[C@H]1C[C@H](Oc2ccc(C(F)(F)F)cn2)C1 [Compound 210] | 200 to 1000 |
| CC[C@H]1CC[C@@H](NC(=O)C(=O)Nc2c[nH]c3cc(F)c(F)cc23)CC1 [Compound 185] | 200 to 1000 |
| CC(C)n1cc(-c2ccc3[nH]cc(NC(=O)C(=O)NCc4ccc(C(F)(F)F)c(Cl)c4)c3c2)cn1 [Compound 129] | 200 to 1000 |
| O=C(NCCC1CCCCC1)C(=O)Nc1c[nH]c2cc(F)c(F)cc12 [Compound 118] | 40 to 200 |
| O=C(Nc1c[nH]c2ccc(Cl)cc12)C(=O)N[C@H]1CC[C@H](Oc2ccc(C(F)(F)F)cc2)CC1 [Compound 213, N-(5-chloro-1H-indol-3-yl)-N′-(trans-4-(4-(trifluoromethyl)phenoxy)cyclohexyl)oxalamide] | 40 to 200 |
| O=C(Nc1ccc(C(F)(F)F)cc1)C(=O)Nc1c[nH]c2ccc(F)c(F)c12 [Compound 180] | 200 to 1000 |
| O=C(Nc1c[nH]c2cc(F)c(F)cc12)C(=O)N[C@H]1CC[C@@H](OCC(F)F)CC1 [Compound 187] | 1000 to 5000 |
| CCC1CCC(NC(=O)C(=O)Nc2c[nH]c3cc(F)c(F)cc23)CC1 (stereo not shown) [Compound 113] | 200 to 1000 |
| O=C(NCCC1(C(F)(F)F)CC1)C(=O)Nc1c[nH]c2cc(F)c(F)cc12 [Compound 152, N1-(5,6-difluoro-1H-indol-3-yl)-N2-(2-(1-(trifluoromethyl)cyclopropyl)ethyl)oxalamide] | 200 to 1000 |
| O=C(NCC1(c2ccccc2)CC1)C(=O)Nc1c[nH]c2cc(F)c(F)cc12 [Compound 146, N1-(5,6-difluoro-1H-indol-3-yl)-N2-((1-phenylcyclopropyl)methyl)oxalamide] | 200 to 1000 |
| O=C(NCc1ccccc1C(F)(F)F)C(=O)Nc1c[nH]c2cc(F)c(F)cc12 [Compound 165, N1-(5,6-difluoro-1H-indol-3-yl)-N2-(2-(trifluoromethyl)benzyl)oxalamide] | 40 to 200 |
| O=C(Nc1c[nH]c2ccc(Cl)cc12)C(=O)N[C@H]1C[C@H](Oc2ccccn2)C1 [Compound 212] | 200 to 1000 |
| O=C(Nc1ccc(C(F)(F)F)cc1)C(=O)Nc1c[nH]c2ccc(F)cc12 [Compound 184] | 200 to 1000 |

Next, values leading:

| EC50 [nM] | Compound |
| --- | --- |
| 1000 to 5000 | O=C(Nc1c[nH]c2cc(F)c(F)cc12)C(=O)N1CCN(CCc2ccc(C(F)(F)F)cc2)CC1 [Compound 216] |
| 200 to 1000 | O=C(Nc1c[nH]c2cc(F)c(F)cc12)C(=O)NC1CCCC2(CCCCC2)C1 (single isomer, unassigned) [Compound 257] |
| 200 to 1000 | O=C(NCCOc1ccc(C(F)(F)F)nc1)C(=O)Nc1c[nH]c2cc(F)c(F)cc12 [Compound 327] |
| 200 to 1000 | O=C(Nc1ccc2c(c1)CCCC2=O)C(=O)Nc1c[nH]c2cc(F)c(F)cc12 [Compound 268, N-(5,6-difluoro-1H-indol-3-yl)-N′-(5-oxo-5,6,7,8-tetrahydro-naphthalen-2-yl)ethanediamide] |
| 200 to 1000 | O=C(NCCOC1CCCC1)C(=O)Nc1c[nH]c2cc(F)c(F)cc12 [Compound 305, N'-[2-(cyclopentyloxy)ethyl]-N-(5,6-difluoro-1H-indol-3-yl)ethanediamide] |
| 1000 to 5000 | O=C(Nc1c[nH]c2cc(F)c(F)cc12)C(=O)NC1CCOC2(CCCC2)C1 (single isomer, unassigned) [Compound 243] |
| 200 to 1000 | O=C(Nc1c[nH]c2cc(F)c(F)cc12)C(=O)NC1COc2ccccc2C1 (stereo not shown) [Compound 301, N-(5,6-difluoro-1H-indol-3-yl)-N′-(3,4-dihydro-2H-1-benzopyran-3-yl)ethanediamide] |
| 200 to 1000 | O=C(Nc1c[nH]c2cc(F)c(F)cc12)C(=O)NC1CCc2ccccc2C1 (stereo not shown) [Compound 313, N-(5,6-difluoro-1H-indol-3-yl)-N′-(1,2,3,4-tetrahydronaphthalen-2-yl)ethanediamide] |
| 1000 to 5000 | COCC(NC(=O)C(=O)Nc1c[nH]c2cc(F)c(F)cc12)c1ccccc1 (stereo not shown) [Compound 310, N-(5,6-difluoro-1H-indol-3-yl)-N′-(2-methoxy-1-phenylethyl) ethanediamide] |
| 200 to 1000 | CC(CN(C)c1ccccc1)NC(=O)C(=O)Nc1c[nH]c2cc(F)c(F)cc12 (stereo not shown) [Compound 328] |
| 200 to 1000 | C[C@@H](NC(=O)C(=O)Nc1c[nH]c2cc(F)c(F)cc12)c1cccc(C(F)(F)F)c1 [Compound 291, N-(5,6-difluoro-1H-indol-3-yl)-N′-[(1R)-1-[3-(trifluoromethyl)phenyl]ethyl] ethanediamide] |
| 200 to 1000 | CC(C)(C)OC(=O)N1CCC2(CCC(NC(=O)C(=O)Nc3c[nH]c4cc(F)c(F)cc34)CC2)CC1 [Compound 297, tert-butyl 9-{[(5,6-difluoro-1H-indol-3-yl)carbamoyl] formamido}-3-azaspiro[5.5]undecane-3-carboxylate] |
| 200 to 1000 | O=C(NCc1cccc(N2CCCCC2)n1)C(=O)Nc1c[nH]c2cc(F)c(F)cc12 [Compound 326] |
| 200 to 1000 | O=C(Nc1ccc(C(F)(F)F)cc1)C(=O)Nc1c[nH]c2ccc(I)cc12 [Compound 263] |
| 200 to 1000 | O=C(Nc1c[nH]c2cc(F)c(F)cc12)C(=O)NC1CCC(Oc2ccccn2)CC1 (stereo not shown) [Compound 316] |
| 200 to 1000 | O=C(Nc1c[nH]c2cc(F)c(F)cc12)C(=O)N[C@H]1CC[C@H](Oc2ccc(C(F)(F)F)nc2)CC1 [Compound 223, N-(5,6-difluoro-1H-indol-3-yl)-N′-[trans-4-[[6-(trifluoromethyl)pyridin-3-yl]oxy]cyclohexyl]ethanediamide] |
| 1000 to 5000 | COc1ccc(CCNC(=O)C(=O)Nc2c[nH]c3cc(F)c(F)cc23)cn1 [Compound 299, N-(5,6-difluoro-1H-indol-3-yl)-N′-[2-(6-methoxypyridin-3-yl)ethyl]ethanediamide] |
| 200 to 1000 | Cc1ccccc1N1C2CCC1CC(NC(=O)C(=O)Nc1c[nH]c3cc(F)c(F)cc13)C2 (stereo not shown) [Compound 254] |
| 1000 to 5000 | O=C(NCc1ccc(C(F)(F)F)c(Cl)c1)C(=O)Nc1c[nH]c2ccc(-c3cccc(CO)c3)cc12 [Compound 349, N-(3-chloro-4-(trifluoromethyl)benzyl)-N′-(5-(3-(hydroxymethyl)phenyl)-1H-indol-3-yl)oxalamide] |
| 200 to 1000 | O=C(Nc1c[nH]c2cc(F)c(F)cc12)C(=O)NC1CCCC2(CCCCC2)C1 (stereo not shown) [Compound 281] |
| 200 to 1000 | O=C(Nc1c[nH]c2cc(F)c(F)cc12)C(=O)N1CCN(Cc2ccc(C(F)(F)F)cc2)CC1 [Compound 253] |
| 1000 to 5000 | O=C(Nc1c[nH]c2cc(F)c(F)cc12)C(=O)NC1CCOC2(CCCC2)C1 (stereo not shown) [Compound 278] |
